How the values were obtained:
[1] = test system: Tg(fabp10a:DsRed) zebrafish larvae; assay: Hepatotoxicity by size analysis of fluorescent 2D liver images (ImageJ); format: in vivo, Zebrafish (Danio rerio); conditions: for Hepatotoxicity detected: Liver size: 6 dpf, vs vehicle control; for change in liver size: any of the administration routes, vs non-treated animals; for Hepatotoxicity detected: Liver size: key: Bold S: statistically significant difference; NS: no statistically significant difference
Procedure: Next, the 2D images obtained in the previous section were used to analyze the size of the fluorescent livers by ImageJ software. […].
(§1) At 6 dpf treated larvae were anesthetized by 0.5 mM tricaine in a 6 well-plate (Falcon®) and arranged so that they were lying on their right sides with their heads facing left. This enabled us to view the left lateral side of the larvae and the larger lobe of the liver that was scored in a blinded manner under a fluorescence microscope (Leica MZ10F-Dsred channel, 40× magnification, Leica Microsystems, Wetzlar, Germany). Livers were considered abnormal if their typical globular structure underwent gross morphological changes. Images of the livers (including a scale bar) were imported to ImageJ software (National Institutes of Health, Bethesda, MD, USA) for determining the liver size. To that end, the picture was set to scale (functions: analyze, set scale), the liver area extracted (functions: split channel, threshold) and the area calculated (function: analyze particles, settings: size = 0−infinity, circularity = 0.00−1.00).

[2] = test system: Tg(fabp10a:DsRed) zebrafish larvae; assay: Hepatotoxicity by visual analysis of liver morphology using fluorescence microscopy; format: in vivo, Zebrafish (Danio rerio); conditions: 6 dpf; for Hepatotoxicity detected: Morphology: vs vehicle control; for Hepatotoxicity detected: Morphology: key: Bold S: statistically significant difference; NS: no statistically significant difference
Procedure: We observed a range of abnormal liver phenotypes including reduced and enlarged livers (Figure 2). […].
The results are expressed as the percentage of larvae having normal or abnormal liver morphology.
as §1

[3] = Pharmacokinetics in zebrafish larvae (larval extracts, UHPLC-UV); format: in vivo, Zebrafish (Danio rerio); conditions: 0-24 h post treatment; for course of larval concentration after injection: yolk and pericardial injection at MD
Procedure: At given time points (0, 2, 6, 12 and 24 h), treated larvae were collected and transferred to 1.5 mL Eppendorf® tubes pre-filled with acid washed glass beads (diameter: 710–1180 µm, Sigma-Aldrich) and 270 µL of extraction medium (1:2 water:methanol, each containing 0.1% formic acid) was added (10 larvae per Eppendorf® tube). Samples were centrifuged for 15 s at 14,100× g (Eppendorf Mini Spin Plus, Hamburg, Germany) to insure high homogenization efficiency. Subsequently, the samples were homogenized with ultrasonication (Diagenode Bioruptor Plus, Seraing, Belgium) at +4 °C and high energy input setting to ensure the highest possible disruption of the cells. The overall treatment time was 15 min spread over 30 cycles of 30 s treatment followed by pauses of 30 s in-between. Six samples were homogenized during each treatment cycle. Subsequently, treated samples were centrifuged at 14,100× g for 15 min and 200 µL of supernatant was transferred to an empty Eppendorf tube (1.5 mL) and stored on ice until all samples were processed. All samples were then placed into a vacuum oven (Model 1410, Sheldon Manufacturing Inc., Cornelius, OR, USA) and evaporated until dry at +45 °C during 45 min. The samples were then reconstituted with a mobile phase-like solution (6% acetonitrile in water), vortexed for 5 s, resuspended at least three times with a micropipette and sonicated (Branson 3510, Danbury, CT, USA) for 15 min. Finally, samples were transferred into amber glass vials (Supelco, Bellefonte, PA, USA) with 250 µL glass inserts (Supelco) for further analysis on UHPLC-UV.
An Agilent 1290 UHPLC system (Agilent, Waldbronn, Germany) consisting of an autosampler, quaternary pump, degasser and DAD-detector (diode array detector) was used for all uptake measurements. […] All calculations concerning the evaluation of recorded data were made in MS Excel (Microsoft Corporation, Seattle, WA, USA). […]
The larval amount of hepatotoxicant (mg/kg) was calculated assuming the weight of a 3 or 4 dpf Tg(fabp10a:DsRed) zebrafish larva to be 0.25 mg.

[4] = test system: Tg(fabp10a:DsRed) zebrafish larvae; assay: Lethality in zebrafish larvae: maximum non-toxic drug concentration/dose (MC/MD); format: in vivo, Zebrafish (Danio rerio); conditions: for MC: maximum non-toxic drug concentration: immersion 3-6 dpf, less than 10% larval death at 6 dpf, or highest soluble concentration; for lethality (larval death): immersion, yolk and pericardial injection, up to highest soluble concentration/dose, 6 dpf; for MD: maximum non-toxic drug dose: less than 10% larval death at 6 dpf, or highest dose injectable without precipitation
Text: The results are expressed as percentage of dead larvae relative to the total larvae (mean ± SD).

[5] = test system: Tg(fabp10a:DsRed) zebrafish larvae; assay: Hepatotoxicity by quantification of DsRed-labeled hepatocytes using cell imaging counting (CIC); conditions: for change in amount of recovered hepatocytes: any of the administration routes, vs non-treated animals; for Hepatotoxicity detected: number of Hepatocytes (CIC): 6 dpf, vs vehicle control
Procedure: We then used CIC and quantified ex vivo DsRed-labeled hepatocytes after dispase-digestion of hepatotoxicant-exposed larvae. […] Analysis was performed after three days of treatment (immersion) or three days after treatment (injection), at 6 dpf. A total of 10 and 12 larvae were used individually per condition for immersion and injections, respectively. The experiment was performed in triplicate and data were pooled. […] Means ± SD of the number of hepatocytes per larva are shown.
Compounds tested were dissolved in DMSO (stock solution) and then further diluted in Danieau’s solution with a final concentration of 1% DMSO or diluted with 0.9% NaCl solution (1:1 ratio) to obtain a working solution for immersion and yolk/pericardial injections, respectively. At 3 dpf, hatched Tg(fabp10a:DsRed) larvae were transferred to 24-well plates (Falcon®, Corning, Lasne, Belgium) with each well containing 10 larvae in 1 mL Danieau’s solution and the dissolved drug or the vehicle control for immersion. For yolk injections, and pericardial injections into the bloodstream via the common cardinal veins, 12 larvae were used for each condition, and each larva was injected with 1 nL of solution at 3 dpf.
In order to digest the larvae and separate hepatocytes from the liver, larvae were transferred to 96 well-plates (Falcon®, Corning, Lasne, Belgium) with one larva per well and incubated with 200 µL 2.5 mg dispase/mL DPBS for 4 h. […] The hepatocytes were dispersed by pipetting up and down 20 times with a 1 mL automatic pipette. After digestion, hepatocytes were positioned at the bottom of the well by centrifugation at 200× g (Jouan CR412 centrifuge, Jouan, Saint-Herblain, France) for 15 min.
Fluorescent hepatocytes present in the wells were imaged and counted on an IN Cell Analyzer 2000 using software IN Cell Investigator Developer Toolbox (GE Healthcare, Machelen, Belgium), with a 2×/0.1 NA lens, DsRed fluorescence channel, a 0.1-s exposure time, and the intensity segmentation (172-4095) set to ensure hepatocytes were recognized selectively.
Differences between drug-treated groups and control vehicle control (VHC) regarding numbers of hepatocytes and liver sizes were analyzed for statistical significance using an ANOVA test. Regarding the liver morphology, Fisher’s exact test was used for the analysis. p < 0.05 was considered statistically significant.

[6] = immersion, MC and lower concentrations
[7] = all three administration routes, MC/MD and dilutions

| SMILES | hepatotoxicity by liver size [1, 6] | Hepatotoxicity detected: Liver size ([1]; immersion, MC) | Hepatotoxicity detected: Morphology ([2]; immersion, MC) | Hepatotoxicity detected: Morphology ([2]; yolk injection, MD) | course of larval concentration after injection [3] | MC: maximum non-toxic drug concentration [4] | lethality (larval death) [4] | MD: maximum non-toxic drug dose ([4]; pericardial injection at 3 dpf) | MD: maximum non-toxic drug dose ([4]; yolk injection at 3 dpf) | change in amount of recovered hepatocytes [5] | change in liver size [1] | abnormal liver morphology [2, 7] | also measured |
| --- | --- | --- | --- | --- | --- | --- | --- | --- | --- | --- | --- | --- | --- |
| CC(=O)Nc1ccc(O)cc1 [Paracetamol] | hepatotoxic only at their MC | S | S | S | fully excreted or metabolized after 24 h | 7500 µM | caused larval death in several of the conditions tested | 604 ^1 mg/kg | 604 ^1 mg/kg |  |  |  | hepatotoxicity by liver size ([1]; injected (yolk or pericardial)): exhibited an effect at its MD after yolk administration; Hepatotoxicity detected: Liver size ([1]; yolk injection, MD): S; Hepatotoxicity detected: Morphology ([2]; immersion, ½ MC): S; abnormal liver morphology ([2]; pericardial injections): no significant toxic effects; Hepatotoxicity detected: Morphology ([2]; yolk injection, ½ MD): S; half-life ([3]; Tg(fabp10a:DsRed), zebrafish, in vivo, after both yolk and pericardial injections (604 mg/kg), read-out: half-life of larval concentration): 6 to 8 h |
| C[C@@H]1O[C@@H](OC[C@H]2O[C@@H](Oc3c(-c4ccc(O)c(O)c4)oc4cc(O)cc(O)c4c3=O)[C@H](O)[C@@H](O)[C@@H]2O)[C@H](O)[C@H](O)[C@H]1O [Rutin] |  |  |  |  |  | 200 ^1 µM | did not induce lethality | 150 ^1 mg/kg | 150 ^1 mg/kg | did not induce any change in the amount of recovered hepatocytes | did not induce any change in liver size | did not induce abnormal liver morphology |  |
| OC[C@H]1O[C@@](CO)(O[C@H]2O[C@H](CO)[C@@H](O)[C@H](O)[C@H]2O)[C@@H](O)[C@@H]1O [Sucrose] |  |  |  |  |  | 8000 ^1 µM | did not induce lethality | 548 ^1 mg/kg | 548 ^1 mg/kg | did not induce any change in the amount of recovered hepatocytes | did not induce any change in liver size | did not induce abnormal liver morphology |  |
| CN(C)[C@@H]1C(O)=C(C(N)=O)C(=O)[C@@]2(O)C(O)=C3C(=O)c4c(O)cccc4[C@@](C)(O)[C@H]3C[C@@H]12 [Tetracycline] | hepatotoxic only at their MC | S | S | S | remained nearly constant |  |  | 384 ^1 mg/kg | 192 mg/kg |  |  | induced abnormal liver morphology in a dose-dependent manner | Hepatotoxicity detected: number of Hepatocytes (CIC) ([5]; immersion, MC): S; hepatotoxicity by CIC hepatocyte count ([5]; immersion, three concentrations): hepatotoxic effects induced by all three tetracycline concentrations; Hepatotoxicity detected: number of Hepatocytes (CIC) ([5]; immersion, ¼ MC): S; Hepatotoxicity detected: number of Hepatocytes (CIC) ([5]; immersion, ½ MC): S; hepatotoxicity by CIC hepatocyte count ([5]; injected doses (yolk or pericardial)): showed no effects; Hepatotoxicity detected: Morphology ([2]; pericardial injection, MD): S; Hepatotoxicity detected: Morphology ([2]; pericardial injection, ½ MD): S |

From publication PMC5343891, “Cell Imaging Counting as a Novel Ex Vivo Approach for Investigating Drug-Induced Hepatotoxicity in Zebrafish Larvae” (International Journal of Molecular Sciences, 2017)
